Source: PMC2956004 (Bioorganic & medicinal chemistry, 2010)

Biological target: recombinant HCV NS5B (genotype 1b) NS5BCΔ21 (Hepatitis C virus genotype 1b, UniProt P26663)
Assay: in vitro NS5B RNA dependent RNA polymerase
Type: biochemical
Settings: Supplementary data, Table S1

Structure (SMILES): O=C(O)CN1C(=O)CSC1=S [2-(4-oxo-2-thioxothiazolidin-3-yl)acetic acid]
- NS5B inhibitory activity (in words): either inactive or poorly active

Structure (SMILES): O=C(O)CN1C(=O)C(=Cc2ccccc2)SC1=S [2-(5-benzylidene-4-oxo-2-thioxothiazolidin-3-yl)acetic acid]
- NS5B inhibitory activity (in words): either inactive or poorly active

Structure (SMILES): CCN1C(=O)C(=Cc2ccc(Cl)cc2Cl)SC1=S [5-(2,4-dichlorobenzylidene)-3-ethyl-2-thioxothiazolidin-4-one]
- NS5B inhibitory activity (in words): either inactive or poorly active
